The results in this text go back to US10131648B2, “Substituted benzothiophenyl derivatives as GPR40 agonists for the treatment of type II diabetes” (Janssen Pharmaceutica NV, priority 2014, dated 2018).

Structures are written as SMILES. Where “and” joins values, the source holds several entries; their conditions need not be identical. Equal entries are not always repeated.

The target in the experiment is human GPR40 (Homo sapiens (Human), UniProt O14842). Briefly: GPR40 Calcium Flux Assay. The experiment is classed as cell-based. As to conditions: transfected HEK293 cells stably expressing human GPR40; Ca2+ mobilization; mean data; read-out: hGPR40 Ca^2+ Assay EC50. Here is the method: Compounds were tested in a calcium flux assay using transfected HEK293 cells stably expressing either human GPR40 or rat GPR40. Human GPR40 expressing cells were cultured in DMEM-High Glucose media supplemented with 10% fetal bovine serum, 1×L-Glutamine, 1×Penicillin/Streptomycin and 500 μg/mL G418. Rat GPR40 expressing cells were cultured in DMEM-High Glucose media supplemented with 10% fetal bovine serum and 1 μg/mL puromycin. Cells were plated into poly-D-lysine coated 384-well plates and cultured overnight in a 37° C. humidified tissue culture incubator under 5% CO2/[…] atmosphere. On the day of the experiment, the culture media was replaced with assay buffer (HBSS, 20 mM HEPES, 0.1% BSA) and the cells incubated at 37° C. for 1 h. Calcium-sensitive fluorescent dye (Fluo 8 No-Wash Calcium Dye, ABD Bioquest) was then added and the cells incubated for another 30 min at 37° C. followed by 15 min at room temperature while protected from the light. The cell plate and a plate of diluted compounds of Formula (I) were loaded into a fluorescent plate reader that added compounds onto the cells while measuring the fluorescence intensity of each well. The plate reader recorded fluorescence intensity at 1 second intervals for 8 min and provided the data for analysis in an Excel format. EC50 values were calculated using Prism (GraphPad) software.
Sequence of human GPR40 (O14842 whole entry): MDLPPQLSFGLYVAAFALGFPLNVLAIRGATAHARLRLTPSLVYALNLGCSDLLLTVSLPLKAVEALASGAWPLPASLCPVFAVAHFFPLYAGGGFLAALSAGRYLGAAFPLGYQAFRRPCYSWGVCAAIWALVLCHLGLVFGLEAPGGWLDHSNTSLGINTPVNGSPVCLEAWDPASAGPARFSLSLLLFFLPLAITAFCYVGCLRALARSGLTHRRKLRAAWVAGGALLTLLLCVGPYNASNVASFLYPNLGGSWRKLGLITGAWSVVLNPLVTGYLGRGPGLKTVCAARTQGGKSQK

As a reminder, the EC50 is the concentration needed to bring the measured effect to its halfway point. For the compound `CC#CC(CC(=O)O)c1ccc(OCc2ccc3scc(-c4ccccc4C)c3c2)nc1` (stereo not drawn) [Cpd 45, 3-(6-((3-(2-Methylphenyl)benzo[b]thiophen-5-yl)methoxy)pyridin-3-yl)hex-4-ynoic acid], the 50% effective concentration (EC50) is 0.013 µM.
For the compound `CC#C[C@@H](CC(=O)O)c1ccc(OCc2ccc3scc(-c4ccc(C(=O)N5CCS(=O)(=O)CC5)cc4C)c3c2)cc1` [Cpd 5, (3S)-3-[4-[[3-[4-(1,1-Dioxo-1,4-thiazinane-4-carbonyl)-2-methyl-phenyl]benzo[b]thiophen-5-yl]methoxy]phenyl]hex-4-ynoic acid], the 50% effective concentration (EC50) turned out to be 0.023 µM.
On to `Cc1cc(OC2CCOCC2)ccc1-c1csc2ccc(COc3ccc([C@]4(CC(=O)O)C[C@@H](O)C4)cc3)cc12` [Cpd 37, 2-((1r,3r)-3-Hydroxy-1-(4-((3-(2-methyl-4-((tetrahydro-2H-pyran-4-yl)oxy)phenyl)benzo[b]thiophen-5-yl)methoxy)phenyl)cyclobutyl)acetic acid], for which the EC50 turned out to be 0.017 µM.
For the compound `CC#C[C@H](CC(=O)O)c1ccc(OCc2ccc3scc(-c4ccc(OCCC(C)(C)O)cc4C)c3c2)nc1` [Cpd 70, (3S)-3-(6-((3-(4-(3-Hydroxy-3-methylbutoxy)-2-methylphenyl)benzo[b]thiophen-5-yl)methoxy)pyridin-3-yl)hex-4-ynoic acid], the EC50 turned out to be 0.5 µM.
Consider `CC#C[C@@H](CC(=O)O)c1ccc(COc2ccc3scc(-c4ccc(C5=CCS(=O)(=O)CC5)cc4C)c3c2)cc1` [Cpd 25, (3S)-3-(4-(((3-(4-(1,1-Dioxido-3,6-dihydro-2H-thiopyran-4-yl)-2-methylphenyl)benzo[b]thiophen-5-yl)oxy)methyl)phenyl)hex-4-ynoic acid], for which the EC50 was determined as 0.024 µM.
Turning to `Cc1cc(OC2CCS(=O)(=O)CC2)ccc1-c1csc2ccc(COc3ccc(C4(CC(=O)O)CC(=O)C4)cc3)cc12` [Cpd 33, 2-(1-(4-((3-(4-((1,1-Dioxidotetrahydro-2H-thiopyran-4-yl)oxy)-2-methylphenyl)benzo[b]thiophen-5-yl)methoxy)phenyl)-3-oxocyclobutyl)acetic acid], the EC50 worked out at 0.015 µM.
The figure for `CC#C[C@@H](CC(=O)O)c1ccc(OCc2ccc3scc(-c4ccccc4C)c3c2)nc1` [Cpd 85, (3R)-3-[6-[[3-(2-Methylphenyl)benzo[b]thiophen-5-yl]methoxy]pyridin-3-yl]hex-4-ynoic acid] is 0.007 µM and 0.006 µM.
The figure for `Cc1ccccc1-c1csc2ccc(OCc3ccc(CCC(=O)O)cc3)cc12` [Cpd 53, 3-(4-(((3-(2-Methylphenyl)benzo[b]thiophen-5-yl)oxy)methyl)phenyl)propanoic acid] is 0.89 µM; for `Cc1ccccc1-c1csc2ccc(COc3ccc(CCC(=O)O)cc3)cc12` [Cpd 1, 3-[4-[[3-(2-Methylphenyl)benzo[b]thiophen-5-yl]methoxy]phenyl]propanoic acid] it is 0.007 µM; for `CC#C[C@@H](CC(=O)O)c1ccc(OCc2ccc3scc(-c4ccc(OCC(O)CO)cc4C)c3c2)cc1` (stereo partly drawn) [Cpd 13, (3S)-3-(4-((3-(4-(2,3-Dihydroxypropoxy)-2-methylphenyl)benzo[b]thiophen-5-yl)methoxy)phenyl)hex-4-ynoic acid] it is 0.007 µM.
For `CC#C[C@@H](CC(=O)O)c1ccc(OCc2ccc3scc(-c4ccccc4Br)c3c2)cc1` [Cpd 20, (3S)-3-(4-((3-(2-Bromophenyl)benzo[b]thiophen-5-yl)methoxy)phenyl)hex-4-ynoic acid], the EC50 was 0.005 µM.
For `CC#C[C@@H](CC(=O)O)c1ccc(OCc2ccc3scc(-c4ccc(OCC5CCS(=O)(=O)CC5)cc4C)c3c2)cc1` [Cpd 17, (3S)-3-(4-((3-(4-((1,1-Dioxidotetrahydro-2H-thiopyran-4-yl)methoxy)-2-methylphenyl)benzo[b]thiophen-5-yl)methoxy)phenyl)hex-4-ynoic acid], the EC50 came out at 0.006 µM.
For `CC#C[C@H](CC(=O)O)c1ccc(OCc2ccc3scc(-c4ccc(OCCOC)cc4C)c3c2)nc1` [Cpd 76, (3S)-3-(6-((3-(4-(2-Methoxyethoxy)-2-methylphenyl)benzo[b]thiophen-5-yl)methoxy)pyridin-3-yl)hex-4-ynoic acid], the EC50 was 0.83 µM.
In the case of `Cc1ncccc1-c1csc2ccc(COc3ccc(C4(CC(=O)O)CC(=O)C4)cc3)cc12` [Cpd 38, 2-(1-(4-((3-(2-Methylpyridin-3-yl)benzo[b]thiophen-5-yl)methoxy)phenyl)-3-oxocyclobutyl)acetic acid], the concentration for a half-maximal effect (EC50) worked out at 0.019 µM.
`CC#C[C@@H](CC(=O)O)c1ccc(OCc2ccc3scc(-c4ccccc4OCCOC)c3c2)cc1` [Cpd 68, (3S)-3-[4-([3-[2-(2-Methoxyethoxy)phenyl]-1-benzothiophen-5-yl]methoxy)phenyl]hex-4-ynoic acid]: the concentration giving a half-maximal response (EC50) was found to be 0.019 µM.
With `CC#C[C@@H](CC(=O)O)c1ccc(COc2ccc3scc(-c4ccc(OCC5CCS(=O)(=O)CC5)cc4C)c3c2)cc1` [Cpd 59, (3S)-3-{4-[((3-{4-[(1,1-Dioxo-tetrahydro-2H-thiopyran-4-yl)methoxy]-2-methylphenyl}-1-benzothiophen-5-yl)oxy)methyl]phenyl}hex-4-ynoic acid], the EC50 is 0.014 µM.
As for `CC#C[C@@H](CC(=O)O)c1ccc(OCc2ccc3scc(-c4ccc(S(C)(=O)=O)cc4C)c3c2)cc1` [Cpd 42, (3S)-3-(4-((3-(2-Methyl-4-(methylsulfonyl)phenyl)benzo[b]thiophen-5-yl)methoxy)phenyl)hex-4-ynoic acid], the EC50 was 0.012 µM.
With `CC#C[C@@H](CC(=O)O)c1ccc(OCc2ccc3scc(-c4cc(S(C)(=O)=O)ccc4C)c3c2)cc1` [Cpd 41, (3S)-3-(4-((3-(2-Methyl-5-(methylsulfonyl)phenyl)benzo[b]thiophen-5-yl)methoxy)phenyl)hex-4-ynoic acid], the concentration giving a half-maximal response (EC50) was 0.021 µM.
For the compound `CC#C[C@@H](CC(=O)O)c1ccc(OCc2ccc3scc(-c4ccc(C5CCS(=O)(=O)CC5)cc4C)c3c2)cc1` [Cpd 8, (3S)-3-[4-[[3-[4-(1,1-Dioxothian-4-yl)-2-methyl-phenyl]benzo[b]thiophen-5-yl]methoxy]phenyl]hex-4-ynoic acid], the concentration giving a half-maximal response (EC50) came to 0.02 µM.
With `Cc1cc(OC2CCOCC2)ccc1-c1csc2ccc(COc3ccc(C4(CC(=O)O)CC(=O)C4)cc3)cc12` [Cpd 34, 2-(1-(4-((3-(2-Methyl-4-((tetrahydro-2H-pyran-4-yl)oxy)phenyl)benzo[b]thiophen-5-yl)methoxy)phenyl)-3-oxocyclobutyl)acetic acid], the concentration giving a half-maximal response (EC50) turned out to be 0.025 µM.
In the case of `CC#C[C@@H](CC(=O)O)c1ccc(COc2ccc3scc(-c4c(C)cccc4C)c3c2)cc1` [Cpd 27, (3S)-3-(4-(((3-(2,6-Dimethylphenyl)benzo[b]thiophen-5-yl)oxy)methyl)phenyl)hex-4-ynoic acid], the concentration for a half-maximal effect (EC50) came out at 0.02 µM.
For the compound `CC#C[C@@H](CC(=O)O)c1ccc(OCc2ccc3scc(-c4cc(OCCOC)cnc4C)c3c2)cc1` [Cpd 49, (3S)-3-(4-((3-(5-(2-Methoxyethoxy)-2-methylpyridin-3-yl)benzo[b]thiophen-5-yl)methoxy)phenyl)hex-4-ynoic acid], the EC50 amounted to 0.009 µM.
Consider `CC#C[C@@H](CC(=O)O)c1ccc(OCc2ccc3scc(-c4ccc(OCCC(C)(C)O)cc4C)c3c2)cc1` [Cpd 12, (3S)-3-(4-((3-(4-(3-Hydroxy-3-methylbutoxy)-2-methylphenyl)benzo[b]thiophen-5-yl)methoxy)phenyl)hex-4-ynoic acid], for which the EC50 turned out to be 0.009 µM.
Consider `CC#C[C@@H](CC(=O)O)c1ccc(OCc2ccc3scc(-c4ccc(OCC5(C)COC5)cc4C)c3c2)cc1` [Cpd 14, (3S)-3-(4-((3-(2-Methyl-4-((3-methyloxetan-3-yl)methoxy)phenyl)benzo[b]thiophen-5-yl)methoxy)phenyl)hex-4-ynoic acid], for which the EC50 came to 0.009 µM.
For the compound `CC#C[C@@H](CC(=O)O)c1ccc(OCc2ccc3scc(-c4cnc(OC)cc4C)c3c2)cc1` [Cpd 82, (3S)-3-(4-((3-(6-Methoxy-4-methylpyridin-3-yl)benzo[b]thiophen-5-yl)methoxy)phenyl)hex-4-ynoic acid], the EC50 is 0.037 µM.
On to `CC#C[C@@H](CC(=O)O)c1ccc(OCc2ccc3scc(-c4cccnc4OC)c3c2)cc1` [Cpd 78, (3S)-3-(4-((3-(2-Methoxypyridin-3-yl)benzo[b]thiophen-5-yl)methoxy)phenyl)hex-4-ynoic acid], for which the 50% effective concentration (EC50) worked out at 0.009 µM.
Consider `CC#C[C@@H](CC(=O)O)c1ccc(OCc2ccc3scc(-c4ncccc4OC)c3c2)cc1` [Cpd 91, (3S)-3-(4-((3-(3-Methoxypyridin-2-yl)benzo[b]thiophen-5-yl)methoxy)phenyl)hex-4-ynoic acid], for which the EC50 was found to be 0.017 µM.
For `CC#C[C@@H](CC(=O)O)c1ccc(OCc2ccc3scc(-c4ccncc4OC)c3c2)cc1` [Cpd 83, (3S)-3-(4-((3-(3-Methoxypyridin-4-yl)benzo[b]thiophen-5-yl)methoxy)phenyl)hex-4-ynoic acid], the EC50 amounted to 0.01 µM.
As for `CC#C[C@@H](CC(=O)O)c1ccc(OCc2ccc3scc(-c4ccc(OC)nc4C)c3c2)cc1` [Cpd 80, (3S)-3-(4-((3-(6-Methoxy-2-methylpyridin-3-yl)benzo[b]thiophen-5-yl)methoxy)phenyl)hex-4-ynoic acid], the EC50 turned out to be 0.02 µM.
With `CC#C[C@@H](CC(=O)O)c1ccc(OCc2ccc3scc(-c4cc(OCCOC)ccc4C)c3c2)cc1` [Cpd 65, (3S)-3-[4-([3-[5-(2-Methoxyethoxy)-2-methylphenyl]-1-benzothiophen-5-yl]methoxy)phenyl]hex-4-ynoic acid], the concentration giving a half-maximal response (EC50) was 0.011 µM.
